{
  "source": "patent US10369131B2",
  "about": "“Ultrapure tetrahydrocannabinol-11-oic acids” (Corbus Pharmaceuticals, Inc., priority 2013, dated 2019)",
  "key": {"HL-60 cells": {"test_system": "HL-60 cells", "test": "PGJ synthesis in HL-60 cells (ELISA)", "type": "cell-based", "description": "The CB2 antagonist SR144528 reduced ultrapure AJA-induced PGJ synthesis in HL60 immune system cells at low concentrations (squares). […] DMSO control (open circles). Treatments of cells was carried out in 48 well plates with 20,000 cells/500 μl RPMI/FCS media/well. Cells were incubated for 20 hrs at 37° C. and 5% CO2. Media was changed to 500 μl of serum free RPMI and TNFα (10 nM) added. […] N=4."}, "female CD-1 mice [1]": {"test_system": "female CD-1 mice", "test": "Mouse hot plate test for antinociception", "type": "in vivo", "conditions": "60 min after administration"}, "female CD-1 mice [2]": {"test_system": "female CD-1 mice", "test": "Ring immobility (catalepsy) test", "description": "The cataleptic response was measured using the ring test described by Pertwee (Pertwee R G, The Ring Test. A Quantitative Method of Assessing the Cataleptic Effect of Cannabis in Mice, Br. J. Pharmacol. 46:753-763 (1972)). Mice were placed on a horizontal wire ring 5.5 cm in diameter attached to a 16 cm vertical rod. The hind paws and fore paws were placed at opposite sides of the ring. The ambient temperature was maintained at 30° C. and the environment was free of auditory stimuli and bright lights. The response was calculated as the fraction of time the mouse was immobile over a five (5) minute test period.\nA dose response was conducted for ultrapure AJA to oral doses of 0.05 to 56 mg/kg.\n(§1) Compounds were administered at a volume of […] via oral gavage.\n(§2) Female CD-1 mice (20-25 g), obtained from Charles River (Raleigh, N.C.), were used for assessment in hot plate nociception, rectal temperature, and ring immobility assays. Separate mice were used for testing each dose of each compound in this battery of procedures. The mice had free access to food and water when in their home cages. All animals were kept in a temperature-controlled (20-22° C.) environment with a 12-hour light-dark cycle (lights on at 7 a.m.).\nEach mouse was tested in a battery of three tests, in which cannabinoid CB1 agonists produce in vivo effects in mice (Martin et al., 1991): antinociception (hot plate assay), decreased rectal temperature and ring immobility. Prior to administration of the test compound, rectal temperature and baseline latency in the hot plate test were measured in the mice. The latter procedure involved placing the mouse on a heated surface (mouse cold/hot plate analgesia apparatus; Stoelting, Wood Dale, Ill.) at a setting of 55° C. Time until the mouse lifts or licks a paw was measured, whereupon the mouse was removed from the apparatus. […] After measurement of baseline temperature and hot plate latency, mice were administered vehicle or drug via oral gavage. […] Subsequently, the mice were placed on a 5.5 cm ring attached at a height of 16 cm to a ring stand, and the amount of time the animals remained motionless during a 5 min period was recorded. In addition, the number of times the mouse fell or jumped off the ring was recorded. If the mouse fell off the ring more than 5 times, the test was terminated.\nRectal temperature values were expressed as the difference between control temperature (before injection) and temperature following drug administration (Δ° C.). Antinociception was expressed as the percent maximum possible effect (MPE) using a 30-s maximum test latency as follows: [(test−control)/(30−control)]×100. During assessment for catalepsy, the total amount of time (in seconds) that the mouse remained motionless on the ring apparatus (except for breathing and whisker movement) was measured and was used as an indication of catalepsy-like behavior. This value was divided by 300 s and multiplied by 100 to obtain a percent immobility. If the mouse fell off the ring more than 5 times, the test was terminated and ring immobility data for the mouse were not included in analysis. Separate between-subjects ANOVAs were used to analyze each measure. Significant differences from control (vehicle) were further analyzed with Tukey post hoc tests (α=0.05) as necessary."}, "female CD-1 mice [3]": {"test_system": "female CD-1 mice", "test": "Rectal temperature (mouse hypothermia assay)", "description": "as §1, §2\nEach mouse was tested in a battery of three tests, in which cannabinoid CB1 agonists produce in vivo effects in mice (Martin et al., 1991): antinociception (hot plate assay), decreased rectal temperature and ring immobility. Prior to administration of the test compound, rectal temperature and baseline latency in the hot plate test were measured in the mice. The latter procedure involved placing the mouse on a heated surface (mouse cold/hot plate analgesia apparatus; Stoelting, Wood Dale, Ill.) at a setting of 55° C. Time until the mouse lifts or licks a paw was measured, whereupon the mouse was removed from the apparatus. […] Subsequently, the mice were placed on a 5.5 cm ring attached at a height of 16 cm to a ring stand, and the amount of time the animals remained motionless during a 5 min period was recorded. In addition, the number of times the mouse fell or jumped off the ring was recorded. […]\nRectal temperature values were expressed as the difference between control temperature (before injection) and temperature following drug administration (Δ° C.). Antinociception was expressed as the percent maximum possible effect (MPE) using a 30-s maximum test latency as follows: [(test−control)/(30−control)]×100. During assessment for catalepsy, the total amount of time (in seconds) that the mouse remained motionless on the ring apparatus (except for breathing and whisker movement) was measured and was used as an indication of catalepsy-like behavior. […]"}, "CB1 receptor": {"target": "CB1 receptor (Homo sapiens, UniProt P21554)", "sequence (P21554 whole entry)": "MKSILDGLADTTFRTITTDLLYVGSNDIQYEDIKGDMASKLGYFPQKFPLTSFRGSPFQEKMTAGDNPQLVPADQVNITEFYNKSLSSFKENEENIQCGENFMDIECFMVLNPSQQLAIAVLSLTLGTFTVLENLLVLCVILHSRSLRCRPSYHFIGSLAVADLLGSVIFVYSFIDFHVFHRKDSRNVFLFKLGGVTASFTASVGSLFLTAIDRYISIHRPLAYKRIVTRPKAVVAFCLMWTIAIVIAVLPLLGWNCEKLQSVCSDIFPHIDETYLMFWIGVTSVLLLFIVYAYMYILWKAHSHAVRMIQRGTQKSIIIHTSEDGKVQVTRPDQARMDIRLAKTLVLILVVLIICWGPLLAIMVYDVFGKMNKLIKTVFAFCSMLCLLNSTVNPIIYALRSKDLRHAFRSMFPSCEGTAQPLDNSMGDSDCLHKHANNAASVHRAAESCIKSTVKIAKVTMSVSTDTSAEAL", "conditions": "earlier ajulemic acid synthesis products, literature; cited from earlier work"}, "female CD-1 mice [4]": {"test_system": "female CD-1 mice", "conditions": "oral; AJA reported in U.S. Pat. No. 5,338,753; cited from earlier work"}, "tumor growth": {"test_system": "tumor growth", "conditions": "doses in the anti-inflammatory range, compared with THC; cited from earlier work"}, "[5]": {"conditions": "rat, at peak pharmacodynamic time points; cited from earlier work"}, "[6]": {"test_system": "neuropathic pain patients", "conditions": "man, cited from earlier work"}, "[7]": {"conditions": "oral 30 and 100 mg/kg (both doses), vs vehicle, p<0.05"}},
  "data": [
    {"molecule": "Cc1c(C(=O)NN2CCCCC2)nn(-c2ccc(Cl)cc2Cl)c1-c1ccc(Cl)cc1", "note": "[SR141716]", "values": [
      {"measurement": "effect of CB1 antagonist on ultrapure AJA-induced PGJ synthesis", "setting": "HL-60 cells; antagonist 10 μM, 2 hrs", "result": "much smaller effect"}
    ]},
    {"molecule": "COc1ccc2c(c1)c(CC(=O)O)c(C)n2C(=O)c1ccc(Cl)cc1", "note": "[indomethacin, reference compound]", "values": [
      {"measurement": "antinociception in the hot plate test (% MPE)", "setting": "female CD-1 mice [1]; 30 mg/kg oral", "result": "did not significantly affect"},
      {"measurement": "ring immobility", "setting": "female CD-1 mice [2]; 30 mg/kg oral", "result": "did not significantly affect"},
      {"measurement": "rectal temperature", "setting": "female CD-1 mice [3]; 30 mg/kg oral", "result": "did not significantly affect"}
    ]},
    {"molecule": "SR144528", "values": [
      {"measurement": "effect of CB2 antagonist on ultrapure AJA-induced PGJ synthesis", "setting": "HL-60 cells", "result": "reduced"}
    ]},
    {"molecule": "CCCCCCC(C)(C)c1cc(O)c2c(c1)OC(C)(C)[C@@H]1CC=C(C(=O)O)C[C@@H]21", "note": "[HU-239]", "values": [
      {"measurement": "ratio of CB1/CB2 binding", "setting": "CB1 receptor", "result": 0.19},
      {"measurement": "doses at which active in the mouse hot plate assay", "setting": "female CD-1 mice [4]", "result": "< 0.5", "unit": "mg/kg"}
    ]},
    {"molecule": "CCCCCc1cc(O)c2c(c1)OC(C)(C)[C@@H]1CCC(C)=C[C@@H]21", "note": "[Δ9-THC, reference compound]", "values": [
      {"measurement": "antinociception in the hot plate test (% MPE)", "setting": "female CD-1 mice [1]; oral 100 mg/kg only, vs vehicle, p<0.05", "result": "produced significant antinociception"},
      {"measurement": "ring immobility", "setting": "female CD-1 mice [2]; [7]", "result": "produced significant"},
      {"measurement": "hypothermia (rectal temperature)", "setting": "female CD-1 mice [3]; [7]", "result": "produced significant"}
    ]},
    {"molecule": "CCCCCCC(C)(C)c1cc(O)c2c(c1)OC(C)(C)[C@@H]1CC=C(C(=O)O)C[C@@H]21", "note": "[AJA, (6aR,10aR)-3-(1′,1′-dimethylheptyl)-Δ8-tetrahydro-cannabinol-9-carboxylic acid]", "values": [
      {"measurement": "inhibition of tumor growth", "setting": "tumor growth", "result": "small but significant inhibition of tumor growth greater than that produced by THC"},
      {"measurement": "brain levels relative to those seen in the plasma", "setting": "[5]", "result": "25-30%"},
      {"measurement": "cannabis-like psychotropic adverse events", "setting": "[6]; neuropathic pain patients", "result": "absence"},
      {"measurement": "pain scores in neuropathic pain patients", "setting": "[6]", "result": "reduce pain scores"}
    ]}
  ]
}
